The test system of experiment [1] is HCT 116. Put plainly: SRB cell proliferation assay, HCT 116. The format is cell-based. The following applies: Homo sapiens. The protocol: (§1) We observed the surprising finding that compounds of the invention were useful in inhibiting proliferation of tumor cell lines (see Table 3).
(§2) Cells were exposed to the test compounds at various concentrations appropriate to determine an IC50 for 72 hours. Cell proliferation was measured using the SRB assay according to Shekan et al (J Natl Cancer Inst (1990) 82, 1107-112) in order to estimate the IC50 values shown in Table 3. Briefly, cells were plated in 96 well dishes 24 hours prior to compound addition at the densities specified in Table 5.1. The assay was terminated with the addition of cold TCA to a final concentration of 10% after growth medium has been removed and the plates were incubated over night at 4°C. The plates were then washed 5 times with water and 100µl of a Sulforhodamine B solution (4%) was added to each well. The plates were then incubated for 10 minutes at room temperature before removal of unbound dye by washing with 1% acetic acid. The bound dye was solubilised with 10 mM Trizma base and the absorbance read at OD520.
(§3) Inhibitory activity of the compounds (IC) was calculated as % inhibition of cell proliferation compared to cells treated with the solvent (DMSO).
(§4) Table 8.1: 18-Cell Line Panel

The subject of experiment [2] is HT-29. Put plainly: SRB cell proliferation assay, HT-29. In kind it is cell-based. The settings on record: Homo sapiens. Here is the method: as §1, §2, §3, §4
Experiment [3] concerns IMR-90. Briefly: SRB cell proliferation assay, IMR-90. The format is cell-based. The settings on record: Homo sapiens. Here is the method:
as §1, §2, §3, §4

Experiment [4] relates to A-431. Put plainly: SRB cell proliferation assay, A-431. In kind it is cell-based. The following applies: Homo sapiens, 18-Cell Line Panel, skin. Here is the method:
as §2, §4

The test system of experiment [5] is A549. Briefly: SRB cell proliferation assay, A549. The format is cell-based. The settings on record: Homo sapiens, 18-Cell Line Panel, lung. Here is the method:
as §2, §4

In experiment [6] the test system is ACHN. Briefly: SRB cell proliferation assay, ACHN. In kind it is cell-based. The following applies: Homo sapiens, 18-Cell Line Panel, kidney. Here is the method:
as §2, §4

For experiment [7], the system named is DU 145. Briefly: SRB cell proliferation assay, DU 145. In kind it is cell-based. The settings on record: Homo sapiens, 18-Cell Line Panel, prostate, read-out: IC50 DU145. Here is the method: as §2, §4
The test system of experiment [8] is MDA-MB-468. Briefly: SRB cell proliferation assay, MDA-MB-468. The format is cell-based. The settings on record: 18-Cell Line Panel; breast. The protocol:
as §2, §4

Experiment [9] relates to NCI-H460. Briefly: SRB cell proliferation assay, NCI-H460. The format is cell-based. The settings on record: Homo sapiens, 18-Cell Line Panel, NSCLC. Here is the method:
as §2, §4

The test system of experiment [10] is OVCAR-3. Put plainly: SRB cell proliferation assay, OVCAR-3. The format is cell-based. The following applies: Homo sapiens, 18-Cell Line Panel, ovary. The protocol: as §2, §4
The test system of experiment [11] is PC-3. Put plainly: SRB cell proliferation assay, PC-3. In kind it is cell-based. The settings on record: Homo sapiens, 18-Cell Line Panel, prostate. The protocol:
as §2, §4

The subject of experiment [12] is SW620. Briefly: SRB cell proliferation assay, SW620. The format is cell-based. The settings on record: Homo sapiens, SW-620; 18-Cell Line Panel; colon. Here is the method:
as §2, §4

Experiment [13] concerns A-375. Put plainly: SRB cell proliferation assay, A-375. In kind it is cell-based. The settings on record: Homo sapiens, 18-Cell Line Panel, melanoma. The protocol: as §2, §4
The subject of experiment [14] is HeLa. Put plainly: SRB cell proliferation assay, HeLa. The settings on record: Homo sapiens, 18-Cell Line Panel, cervix. The format is cell-based. Here is the method: as §2, §4
Experiment [15] concerns MDA-MB-231. Briefly: SRB cell proliferation assay, MDA-MB-231. In kind it is cell-based. The following applies: Homo sapiens, 18-Cell Line Panel, breast. The protocol:
as §2, §4

The test system of experiment [16] is SK-MEL-28. Put plainly: SRB cell proliferation assay, SK-MEL-28. The following applies: Homo sapiens, 18-Cell Line Panel, melanoma. The format is cell-based. The protocol: as §2, §4
Experiment [17] concerns SK-MEL-5. Briefly: SRB cell proliferation assay, SK-MEL-5. In kind it is cell-based. The following applies: Homo sapiens, 18-Cell Line Panel, melanoma. Here is the method: as §2, §4
Experiment [18] deals with COLO 205. Briefly: SRB cell proliferation assay, COLO 205. The format is cell-based. The settings on record: Homo sapiens, 18-Cell Line Panel, colon. The protocol:
as §2, §4

For experiment [19], the system named is Abl, Akt1, Aur A, c-Kit, c-Raf, Cdk1/CycB, Chk1, FGFR3, Flt3, Fyn, IGF1-R, INSR, Lyn, MAPK-ERK1, p38a, PAK4, PKCalpha, Ret, ROCK2, RSK 1, c-Src, TIE2, and …. Briefly: Selectivity panel (Proteros), 23 other kinases. The format is biochemical. The settings on record: tested at 1 mM in triplicates; each of the 23 other kinases. The protocol:
Selected compound of the present invention were tested in a standard selectivity panel including Plk1 and 23 other kinases (Proteros biostructures GmbH, Martinsried/Munich, Germany), under conditions of non-disclosure, non-dissemination and non-use.
In brief, compounds 1, 13, 14, and 25 (see Table 1) were tested at 1 mM in triplicates against Plk1 as well as against Abl, Akt1, Aur A, c-Kit, c-Raf, Cdk1/CycB, Chk1, FGFR3, Flt3, Fyn, IGF1-R, INSR, Lyn, MAPK-ERK1, p38a, PAK4, PKCalpha, Ret, ROCK2, RSK 1, c-Src, TIE2, and VEGF-R2.

Experiment [20] deals with Plk1 (Homo sapiens, UniProt P53350). Briefly: Cellular Plk1 kinase activity: nucleophosmin (B23) Ser4 phosphorylation in HCT116 cells (MSD electrochemiluminescence). Details: host or cells: HCT116. In kind it is cell-based. The following applies: 100 ng/ml nocodazole, 4 hours after compound addition, read-out: Biochemical IC50 Nucleophosmin assay. The protocol: We observed the surprising finding that compounds of the invention were able to penetrate cell membranes and retained their activity as Plk1 inhibitors against native Plk1 expressed within living cancer cells.
Cellular Plk1 kinase activity was measured by quantification of nucleophosmin (B23) Ser4 phosphorylation in a cancer cell line. Nucleophosmin (B23) Ser4 is phosphorylated by Plk1, and this phosphorylation can be specifically detected by cross-reactivity of a phospho-Mek1/2 antibody that is able to recognizes a mitotic-specific phosphorylated form of nucleophosmin (B23) in a nocodazole dependent way (Zhang, H., Shi, X., Paddon, H., Hampong, M., Dai, W., and Pelech, S. (2004) B23/Nuleophosmin Serin 4 Phosphorylation Mediates Mitotic Functions of Polo-like Kinase 1. J. Biol. Chem., 279(34), 35726-35734).
Briefly, HCT116 cells (ATCC, Order No. CCL-247) were plated in 96 well dishes 24 hours prior to nocodazole treatment at 25 000 cells per well. Cells were then treated with 100 ng/ml nocodazole (Sigma-Aldrich, # M1404). 20 hours after nocodazole treatment, cells were exposed to the test compounds at various concentrations appropriate to determine an IC50. 4 hours after compound addition, medium was carefully removed and 120 µl of Complete Tris Lysis Buffer (R60TX; MSD, Gaithersburg MD) was added to each well. Samples were then stored at -20°C.
The level of nucleophosmin (B23) Ser4 phosphorylation in these cell lysis samples was estimated by electrochemiluminescence detection using the Meso Scale Discovery ("MSD") Technology Platform (MSD, Gaithersburg MD). The protocol used was as recommended by the manufacturer with the use of a phospho-Mek1/2 antibody (Cell Signalling, #9121) as primary antibody, and is as follows.
The cell lysates were thawed at room temperature and 40 µl were incubated on 96-well MULTI-ARRAY High Bind plates (L11XB; MSD) for 1.5 - 2 hours at room temperature. The supernatants were then removed and 150 µl of a 5% (w/v) solution of Blocker A (R93AA; MSD) in Tris Wash Buffer (R61TX; MSD) were added to each well. The plates were then incubated for 1 hour at room temperature before removal of the Blocker A solution and washed 4 times with 200 µl Tris Wash Buffer. 25 µl primary antibody (anti-phospho-MEK1/2, Cell Signalling, #9121, rabbit polyclonal), diluted 1:250 in a 1% (w/v) solution of Blocker A in Tris Wash Buffer, were added to each well. The plates were then incubated for 1 hour at room temperature before removal of the antibody solution and washed 4 times with 200 µl Tris Wash Buffer. Then, 25 µl of labelled secondary antibody (SULFO-TAG Goat Anti-Rabbit IgGAntibody (R32AB; MSD), diluted 1:500 in a 1% (w/v) solution of Blocker A in Tris Wash Buffer) were added to each well. The plates were then incubated for 1 hour at room temperature before removal of the antibody solution and washed 4 times with 200 µl Tris Wash Buffer. Then, […] of 1x Read Buffer T (R92TC; MSD) were carefully added to each well and the plates were quantitatively detected for each well with a SECTOR™ Imager 6000 (MSD).
Inhibitory activity of the compounds (IC) was calculated as % inhibition of nucleophosmin (B23) Ser4 phosphorylation compared to cells not treated with nocodazole.

The mark [21] stands for this setting: HCT-116, 72 h, 72 hours, SRB assay, read-out: CELLULAR IC50 HCT 116.
Where [22] appears, read: HT-29, 72 h, 72 hours, SRB assay, read-out: CELLULAR IC50 HT-29.
Where [23] appears, read: 72 hours, SRB assay, slow cycling cell line, read-out: CELLULAR IC50 IMR-90.

Like-named read-outs stand apart in the source and are kept apart here. Some results are limits rather than exact numbers.

Sequence of Plk1 (P53350 whole entry, species assumed): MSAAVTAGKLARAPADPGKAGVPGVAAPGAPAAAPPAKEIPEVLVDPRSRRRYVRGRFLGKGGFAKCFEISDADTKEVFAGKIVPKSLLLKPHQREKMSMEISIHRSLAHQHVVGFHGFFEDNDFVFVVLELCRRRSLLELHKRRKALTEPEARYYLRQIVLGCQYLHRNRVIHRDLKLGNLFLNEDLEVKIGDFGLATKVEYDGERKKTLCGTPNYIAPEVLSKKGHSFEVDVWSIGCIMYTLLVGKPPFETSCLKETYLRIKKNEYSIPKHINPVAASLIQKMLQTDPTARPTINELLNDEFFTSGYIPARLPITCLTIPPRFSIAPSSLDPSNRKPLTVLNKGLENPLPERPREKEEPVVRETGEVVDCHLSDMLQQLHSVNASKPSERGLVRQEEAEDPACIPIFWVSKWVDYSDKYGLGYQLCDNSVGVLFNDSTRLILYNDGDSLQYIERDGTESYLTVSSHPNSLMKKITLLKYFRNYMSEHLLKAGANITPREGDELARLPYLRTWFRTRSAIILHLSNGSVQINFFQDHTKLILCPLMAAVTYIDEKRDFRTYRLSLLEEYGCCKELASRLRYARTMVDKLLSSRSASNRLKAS

On to `CCC1C(=O)N(C)c2cnc(Nc3ccc(C(=O)NC4CCN(C)CC4)cc3OC)nc2N1C1CCCC1` (centres unmarked) [BI 2536, reference compound], for which the IC50 in experiment [1] (HCT-116, 18-Cell Line Panel, colon, read-out: IC50 HCT116) is under 1 µM; in experiment [2] (HT-29, 18-Cell Line Panel, colon, read-out: IC50 HT-29) it was under 1 µM; in [3] (18-Cell Line Panel, lung, read-out: IC50 IMR-90), over 1 µM; in experiment [4] it was under 1 µM; in experiment [5] it was under 1 µM; in experiment [6] it was under 1 µM. Besides, the IC50 in experiment [7], in experiment [9], in [10], in [11], in [12] and in experiment [13] was under 1 µM each time. Further, the IC50 in experiment [14], in experiment [15], in [16], in experiment [17] and in experiment [18] was under 1 µM in each case. Moreover, the “IC50 MDA-MB-468” value in experiment [8] is recorded as “plateau at ∼50%”.

As for `CCC1C(=O)N(C)c2cnc(Nc3ccc(C(=O)NC4CCN(C5CCN(Cc6ccccc6)CC5)CC4)cc3OC)nc2N1N(C)C` (centres unmarked) [Compound 14, N-(1'-Benzyl-[1,4']bipiperidinyl-4-yl)-4-(8-dimethylamino-7-ethyl-5-methyl-6-oxo-5,6,7,8-tetrahydro-pteridin-2-ylamino)-3-methoxy-benzamide], the “all other kinases were inhibited” value in experiment [19] is recorded as “less than 10%”. The IC50 was under 1 µM in experiment [1] (setting [21]), under 1 µM in experiment [2] (setting [22]), over 1 µM in experiment [3] (setting [23]) and under 0.1 µM in experiment [20].

Take `CCC1C(=O)N(C)c2cnc(Nc3ccc(C(=O)NC4CCN(C)CC4)cc3OC)nc2N1N(C)CC` (centres unmarked) [Compound 25, 4-[7-Ethyl-8-(ethyl-methyl-amino)-5-methyl-6-oxo-5,6,7,8-tetrahydro-pteridin-2-ylamino]-3-methoxy-N-(1-methyl-piperidin-4-yl)-benzamide]: in experiment [19], the “all other kinases were inhibited” value is listed as “less than 10%”. The IC50 in experiment [1] (setting [21]) was under 1 µM; in [2] (setting [22]) it was under 1 µM; in [3] (setting [23]), over 1 µM; in experiment [20], under 0.1 µM.

With `CCC1C(=O)N(C)c2cnc(Nc3ccc(C(=O)NC4CCN(C)CC4)cc3OC)nc2N1NC` (centres unmarked) [Compound 30, 4-(7-Ethyl-5-methyl-8-methylamino-6-oxo-5,6,7,8-tetrahydro-pteridin-2-ylamino)-3-methoxy-N-(1-methyl-piperidin-4-yl)-benzamide], the IC50 is under 1 µM in [1] (setting [21]), under 1 µM in [2] (setting [22]), over 1 µM in experiment [3] (setting [23]) and under 0.1 µM in experiment [20].

`CCC1C(=O)N(C)c2cnc(Nc3ccc(C(=O)NCC4CCN(CC)CC4)cc3OC)nc2N1NC` (centres unmarked) [Compound 32, 4-(7-Ethyl-5-methyl-8-methylamino-6-oxo-5,6,7,8-tetrahydro-pteridin-2-ylamino)-N-(1-ethyl-piperidin-4-ylmethyl)-3-methoxy-benzamide]: the IC50 in experiment [1] (setting [21]) was under 1 µM; in experiment [2] (setting [22]) it was under 1 µM; in [3] (setting [23]), over 1 µM; in experiment [20], under 0.5 µM.

As for `CCC1C(=O)N(C)c2cnc(Nc3ccc(C(=O)NC4CCN(C)CC4)cc3OC)nc2N1N(C)CC1CCC1` (centres unmarked) [Compound 33, 4-[8-(Cyclobutylmethyl-methyl-amino)-7-ethyl-5-methyl-6-oxo-5,6,7,8-tetrahydro-pteridin-2-ylamino]-3-methoxy-N-(1-methyl-piperidin-4-yl)-benzamide], the IC50 in [1] (setting [21]) was under 1 µM; in experiment [2] (setting [22]), under 1 µM; in experiment [3] (setting [23]) it was over 1 µM; in experiment [20], under 0.1 µM.

On to `CCC1C(=O)N(C)c2cnc(Nc3ccc(C(=O)NCC4CCN(CC)CC4)cc3OC)nc2N1N(C)CC1CCC1` (centres unmarked) [Compound 34, 4-[8-(Cyclobutylmethyl-methyl-amino)-7-ethyl-5-methyl-6-oxo-5,6,7,8-tetrahydro-pteridin-2-ylamino]-N-(1-ethyl-piperidin-4-ylmethyl)-3-methoxy-benzamide], for which the half-maximal inhibitory concentration (IC50) is under 1 µM in experiment [1] (setting [21]), under 1 µM in [2] (setting [22]), over 1 µM in [3] (setting [23]) and under 0.5 µM in experiment [20].

These data come from patent publication EP2112152A1, “Dihydropteridinones as Plk Inhibitors” (GPC Biotech AG, priority 2008, dated 2009).
